These results are taken from paper PMC11117723, “Benzene with Alkyl Chains Is a Universal Scaffold for Multivalent Virucidal Antivirals” (ACS Central Science, 2024).

Data set [1] relates to HSV-2. Nature of the data set: HSV-2 inhibition under four treatment conditions (cell pretreatment, virus pretreatment, cotreatment, post-treatment). The format is cell-based.
Data set [2] deals with HSV-2. Put plainly: HSV-2 DNA release (DNA exposure) assay with DNase. To be noted: 43.2 and 86.5 μM. Here is the method:
To determine whether the virucidal effect is caused by the damage to the viral particles, we performed DNA release assays. Briefly, we incubated HSV-2 and B6C11S mixtures with DNase or buffer, inactivated the DNase, and then quantified the DNA amounts in the two samples (Figure 2c).

For a further data set, the system named is Raji cells. Put plainly: Raji cell cytotoxicity (Zombie NIR flow cytometry). The following applies: read-out: CC50 (95% CI), Raji cells; EBV line. Background: A flow cytometer gives signals particle by particle.
Another data set concerns SARS-CoV-2 Alpha. The format is in vivo, Syrian hamster.
A further data set relates to Vero cells. Put plainly: Vero cell cytotoxicity (MTS assay). To be noted: 24 h, read-out: CC50 (95% CI), Vero cells. The format is cell-based. A general note: Tetrazolium assays rely on reduction of a dye to a coloured formazan, in cell work by metabolically active cells.
Another data set concerns HEK293T cells. Put plainly: HEK293T cell cytotoxicity (Zombie NIR flow cytometry). To be noted: read-out: CC50 (95% CI), 293T cells; HEK293T cells; KSHV line.
The test system of a further data set is TZM-bl cells. Nature of the data set: TZM-bl cell cytotoxicity (WST-1). To be noted: read-out: CC50 (95% CI), TZM-bl cells; HIV-1 line.
The subject of the next data set is MDCK cells. The following applies: read-out: CC50 (95% CI), MDCK cells.

Entries after “also recorded” stand apart in the source; their conditions may differ. Read-outs that look alike come from different tables or passages of the source.

Usually CC50 stands for the concentration that lowers cell viability or growth by half. Turning to `O=S(=O)(O)OCCCCCCCCCCCSCc1c(CSCCCCCCCCCCCOS(=O)(=O)O)c(CSCCCCCCCCCCCOS(=O)(=O)O)c(CSCCCCCCCCCCCOS(=O)(=O)O)c(CSCCCCCCCCCCCOS(=O)(=O)O)c1CSCCCCCCCCCCCOS(=O)(=O)O` [B6C11S], the “HSV-2 inhibition, cell pretreatment” value in the data set on HSV-2 [1] (condition (i) cell pretreatment, 21.6 μM) is on record as “no inhibition”. In addition, the “decrease of percentage of infected cells” value in the data set with HSV-2 [1] (condition (ii) virus pretreatment, 5.4 μM) is “over 85%”; in the data set on HSV-2 [1] (condition (iii) cotreatment, 5.4 μM), “over 85%”; with HSV-2 [1] (condition (iv) post-treatment, 21.6 μM), 85%. Besides, the “release of viral DNA (HSV-2)” value in the data set with HSV-2 [2] is on record as “induced the release of viral DNA”. Also, the CC50 is 17.5 µM in the data set on Vero E6 cells (read-out: CC50 (95% CI), Vero E6 cells, SARS-CoV-2 (Alpha) line); 17.5 µM with Vero E6 cells (read-out: CC50 (95% CI), Vero E6 cells, value repeated in the SARS-CoV-2 (Omicron) line); above 162 µM in the data set on Raji cells; 200 µM with Vero cells; above 162 µM in the data set on HEK293T cells; above 54 µM in the data set on TZM-bl cells. The CC50 with MDCK cells was above 5.4 µM. Moreover, the “body weight change of infected hamsters” value with SARS-CoV-2 Alpha ([…], vs untreated group) was “no significant change”; in the data set with SARS-CoV-2 Alpha (hamster, in vivo), “decreased the body weight change”. Further, the “histopathological evaluation of lung tissues” value in the data set with SARS-CoV-2 Alpha (hamster, in vivo) was “improved pulmonary conditions”. Besides, the “infectious viral titer (TCID50) in the lungs vs untreated” value with SARS-CoV-2 Alpha (hamster, in vivo) is “significantly decreased the viral titer; also recorded: significant reduction in the infectious viral load”. Moreover, in the data set on SARS-CoV-2 Alpha (hamster, in vivo), the “severe lung damage (histopathology categories E and F)” value is listed as “reducing severe lung damage”. In the data set with SARS-CoV-2 Alpha (hamster, in vivo), the “viral RNA copies in lung vs untreated” value is “significantly decreased viral RNA copies”. The “viral RNA levels in oral swab vs untreated” value with SARS-CoV-2 Alpha (hamster, in vivo) is “significantly lower viral RNA levels”. In addition, the “viral titers (viral RNA) in swab samples and lung tissues vs untreated” value in the data set on SARS-CoV-2 Alpha (hamster, in vivo) is given as “did not find any notable differences; also recorded: No statistical difference”.
